{"source": "patent US20140066519A1", "about": "“USE OF XANTHOHUMOL AND/OR ISOXANTHOHUMOL AS AN AGENT FOR PREVENTING AND/OR COMBATING LIVER DISEASES” (FLAXAN GMBH & CO. KG, priority 2006, published 2014)", "key": {"[1]": {"tested_on": "liver cells infected with hepatitis C (HUH7 HCV replicon)", "assay": "efficacy on liver cells infected with hepatitis C vs non-infected liver cells (FIGS. 2 and 3)", "format": "cell-based", "description": "Thus, use of the invention allows a targeted therapy for reduction or elimination of liver cells infected with the virus."}, "[2]": {"tested_on": "activated hepatic stellate cells", "assay": "destruction (LDH) of activated hepatic stellate cells (FIG. 8)", "format": "cell-based", "settings": "increasing dosage of xanthohumol"}, "liver cells": {"tested_on": "liver cells", "assay": "in vitro tests of fat accumulation (steatosis) in liver cells", "format": "cell-based", "description": "Another effective method of preventing NASH 102 can be performed by inhibiting inflammation 108 of the liver even when eating a high fat diet. Another effective method of preventing NASH 102 can be performed by inhibiting fibrosis 110 of the liver even when eating a high fat diet. […] Inhibition of fat accumulation, inflammation, and/or fibrosis can also be an effective treatment for slowing down or preventing further progression of the liver disease state (including NASH). […] Inhibition of the reception of fatty acids into liver cells was determined in vitro tests and in vivo experiments."}, "hepatic stellate cells": {"tested_on": "hepatic stellate cells", "assay": "transformation of quiescent hepatic stellate cells to activated hepatic stellate cells (FIGS. 6 and 7)", "format": "cell-based", "settings": "hepatic stellate cell activation, increasing dosage of xanthohumol", "description": "FIGS. 6 and 7 illustrate the effect of addition of xanthohumol for the prevention of transformation of the body's own physiologically “quiescent” (non-activated) hepatic stellate cells to activated hepatic stellate cells.\nFIGS. 6 and 7 illustrate the effect of addition of xanthohumol for the prevention of transformation of the body's own, physiologically “quiescent” (non-activated) hepatic stellate cells to activated hepatic stellate cells, which are responsible for scarring of the liver in cirrhosis of the liver."}, "[3]": {"tested_on": "Collagen Type I (Coll-I) mRNA", "assay": "hepatic Coll-I mRNA expression in high fat diet mouse study (FIG. 17)", "format": "in vivo", "settings": "500 mg/kgBW, 20 weeks", "description": "(§1) In vivo studies correlate with the in vitro studies. FIGS. 13-18 show comparative graphs of in vivo experimental data showing the effectiveness of xanthohumol when eating a high fat diet. The experiments involved using male C57BL/6N mice purchased from Charles River Laboratories (Sulzfeld, Germany). After two weeks of acclimatization, the mice were fed either standard diet (CTR), standard diet with xanthohumol (XN), high fat diet without providing xanthohumol (HFD), or high fat diet and xanthohumol (HFD+XN). High fat diet in the experiments included a NASH-inducing diet which includes sucrose, cholesterol, and fats rich in saturated fatty acids. In detail, the high fat diet included pork lard (15%), beef tallow (15%), palmitic acid (4%), stearic acid (4%), cholesterol (0.2%), and sucrose (30%). The feeding lasted for 20 weeks. Each experimental group had six mice. The XN and HFD+XN mice were provided with 500 mg of xanthohumol per kg of body weight (kgBW).\n(§2) FIGS. 17 and 18 show charts of the detected measurement of hepatic mRNA expressions of Collagen Type I (Coll-I) and profibrogenic factor tissue inhibitor of metalloproteinases 1 (TIMP-1), respectively, of the mice from the experiments (*: p<0.05; normalized so that CTR is set to 1). These methodologies are established markers detecting hepatic fibrosis (e.g., fibrosis of the liver). […]"}, "[4]": {"tested_on": "liver cancer cells (HepG2)", "assay": "growth of liver cancer cells (HepG2) over time as a function of xanthohumol dosage (FIG. 5)", "format": "cell-based", "settings": "HepG2, increasing concentrations of xanthohumol, pure form (>98%)"}, "[5]": {"tested_on": "tissue inhibitor of metalloproteinases 1 (TIMP-1) mRNA", "assay": "hepatic TIMP-1 mRNA expression in high fat diet mouse study (FIG. 18)", "format": "in vivo", "settings": "500 mg/kgBW, 20 weeks", "description": "as §1, §2"}, "male C57BL/6N mice": {"tested_on": "male C57BL/6N mice", "assay": "high fat diet (NASH-inducing diet) feeding study in mice, 20 weeks (FIGS. 13-15)", "format": "in vivo", "settings": "500 mg/kgBW", "description": "as §1"}, "[6]": {"tested_on": "proinflammatory cytokine tumor necrosis factor (TNF) mRNA", "assay": "hepatic TNF mRNA expression in high fat diet mouse study (FIG. 16)", "format": "in vivo", "settings": "500 mg/kgBW, 20 weeks", "description": "as §1\nThe TNF measurement is an indicator of inflammation in the liver. The mice that ate high fat diet (HFD) had the highest level of TNF mRNA. […] The reduction was by more than 50% of the HFD mice, such that the TNF mRNA of the HFD+XN mice had nearly the same TNF mRNA level as the control mice (CTR). […]"}, "[7]": {"settings": "standard diet with xanthohumol (XN), mice"}, "[8]": {"settings": "standard diet with xanthohumol (XN)"}}, "data": [{"smiles": "COc1cc(O)c(CC=C(C)C)c(O)c1C(=O)/C=C/c1ccc(O)cc1", "note": "[xanthohumol]", "values": [{"measurement": "destruction of liver cells affected by the virus vs healthy liver cells", "setting": "[1]; healthy liver cells left undamaged", "value": "selective destruction"}, {"measurement": "replication of the virus", "setting": "[1]; hepatitis B and C viral damage to the liver", "value": "inhibit replication of the virus"}, {"measurement": "destruction (LDH) of activated hepatic stellate cells", "setting": "[2]", "value": "increased effect of destruction"}, {"measurement": "viability of the liver cells", "setting": "liver cells; in vitro", "value": "does not affect the viability"}, {"measurement": "reception of fatty acids into liver cells (formation of steatosis)", "setting": "liver cells; in vitro tests and in vivo experiments", "value": "directly inhibits"}, {"measurement": "fatty degeneration of liver cells", "setting": "liver cells; in vitro, increased amount of xanthohumol", "value": "lessens fatty degeneration"}, {"measurement": "formation of scar tissue", "setting": "hepatic stellate cells", "value": "increasingly suppressed"}, {"measurement": "hepatic Coll-I mRNA compared to HFD mice", "setting": "[3]; HFD+XN", "value": "substantial reductions"}, {"measurement": "hepatic Coll-I mRNA level", "setting": "[3]; [7]", "value": "about the same as the control mice"}, {"measurement": "growth of the cancer cells", "setting": "[4]", "value": "progressively inhibited"}, {"measurement": "hepatic TIMP-1 mRNA compared to HFD mice", "setting": "[5]; HFD+XN", "value": "substantial reductions"}, {"measurement": "hepatic TIMP-1 mRNA level", "setting": "[5]; [7]", "value": "about the same as the control mice"}, {"measurement": "reduction of ALT level compared to HFD mice", "setting": "male C57BL/6N mice; HFD+XN", "value": "~50", "unit": "%"}, {"measurement": "reduction of hepatic TG (mg(TG)/mg(protein)) compared to high fat diet without xanthohumol", "setting": "male C57BL/6N mice; HFD+XN", "value": "more than 50%"}, {"measurement": "ALT level", "setting": "male C57BL/6N mice; [8]", "value": "lowest detected levels"}, {"measurement": "hepatic TG (mg(TG)/mg(protein)) level", "setting": "male C57BL/6N mice; [8]", "value": "lowest detected levels"}, {"measurement": "reduction of TNF mRNA compared to HFD mice", "setting": "[6]; HFD+XN", "value": "more than 50%"}, {"measurement": "TNF mRNA level", "setting": "[6]; [7]", "value": "lowest detected levels"}]}]}
